Assay [1] relates to rMIF-induced cell surface VCAM-1 expression in PBMCs. Put plainly: Cell surface ELISA of VCAM-1 expression in stimulated PBMC culture. Format: cell-based, Human. The settings on record: for % change in VCAM-1 expression with ibudilast: normalized to no stimulant levels, n = 2. On the procedure:
(§1) In order to determine whether ibudilast antagonized MIF activity, a peripheral blood mononuclear cell (PBMC) culture model was used. Human PBMCs were isolated by Ficoll gradient. Cells were plated in a 96-well tissue culture plate in RPMI medium without serum and incubated overnight to achieve quiescence. They were then treated with 0.1% DMSO (vehicle) or ibudilast at 10 μM, one hour prior to stimulation with recombinant human MIF (0.8, 8, or 80 nM) or LPS (10 ng/mL). 9 hours post-stimulation, the adherent cells were fixed and analyzed for expression of […] adhesion molecule-1 (ICAM-1) and vascular cell adhesion molecule-1 (VCAM-1) via cell surface enzyme linked immunosorbent assay (ELISA).
A general note: In an ELISA, binding on a coated surface is turned into a signal by an enzyme label.

Assay [2] relates to rMIF-induced cell surface ICAM-1 expression in PBMCs. Put plainly: Cell surface ELISA of ICAM-1 expression in stimulated PBMC culture. Format: cell-based, Human. The settings on record: for % change in ICAM-1 expression with ibudilast: normalized to no stimulant levels, n = 2. On the procedure: as §1
The mark [3] stands for this setting: 10 μM ibudilast 1 h before stimulant, LPS 10 ng/mL, 9 hours post-stimulation.
The mark [4] stands for this setting: 10 μM ibudilast 1 h before stimulant, MIF 0.8 nM, 9 hours post-stimulation.
The mark [5] stands for this setting: 10 μM ibudilast 1 h before stimulant, MIF 8 nM, 9 hours post-stimulation.
[6] abbreviates: 10 μM ibudilast 1 h before stimulant, MIF 80 nM, 9 hours post-stimulation.
Setting [7] is: 10 μM ibudilast, No Stimulant (quiescent cells).
[8] abbreviates: 10 μM ibudilast, recombinant human MIF stimulation.

The structures appear in SMILES notation.

With `CC(C)C(=O)c1c(C(C)C)nn2ccccc12` [ibudilast, 3-isobutyryl-2-isopropylpyrazolo[1,5-a]pyridine], the “% change in VCAM-1 expression with ibudilast” value in assay [1] (setting [3]) was −1.5%; in assay [1] (setting [4]) it was −2.9%; in assay [1] (setting [5]) it was 4.4%; in assay [1] (setting [6]) it was 5.4%; in assay [1] (setting [7]), 95.1%. In addition, the “effect on LPS induction of VCAM-1 (in words)” value in assay [1] (10 μM ibudilast, LPS 10 ng/mL) was “not significantly affected”. Also, in assay [1] (setting [8]), the “effect on recombinant MIF-induced expression of VCAM-1 (in words)” value was “antagonizes”. Further, the “% change in ICAM-1 expression with ibudilast” value in assay [2] (setting [3]) is reported as 74.5%; in assay [2] (setting [4]), −2.5%; in assay [2] (setting [5]), −0.95%; in assay [2] (setting [6]), −1.3%; in assay [2] (setting [7]), 30.9%. Moreover, the “effect on LPS induction of ICAM-1 (in words)” value in assay [2] (10 μM ibudilast, LPS 10 ng/mL) was “not significantly affected”. For the same compound, the “effect on recombinant MIF-induced expression of ICAM-1 (in words)” value in assay [2] (setting [8]) was “antagonizes”.

The record behind these values is patent publication US7622256B2, “Method for selecting compounds that modulate MIF-induced expression of ICAM-1 and/or VCAM-1” (Avigen, Inc., priority 2006, dated 2009).
